Measurements reported in PubChem BioAssay AID1963832 (Molecular Pharmacology Branch, DTP, NCI, 2024).

System: 885724-159-R-J1-PDC complex spheroid viability
Assay: Anticancer human tumor 885724-159-R-J1-PDC patient-derived pancreatic adenocarcinoma cell line growth inhibition [POLQ]
Details: for IC50: curve of first compound; for viability, T/C: stronger effect = lower value
Protocol: Multicellular complex tumor spheroid response to Polymerase (POL) inhibitors (novobiocin, ART-558, RP6685) in combination with a variety of drugs and investigational agents in selected tumor cell lines
The POL inhibitors (novobiocin, ART-558, and RP6685) were evaluated both individually and in combination with standard of care and investigational anticancer small molecules within a complex spheroid model of solid tumors. . Complex spheroids include a stromal component modeled by human endothelial cells (HUVEC) and fibroblasts modeled by human mesenchymal stem cells (MSCs). The concentration ranges selected for each drug and investigational agent were based upon clinically achievable concentrations if the clinical Cmax of the agent was known.
Compounds. The drugs and investigational agents: novobiocin (NSC847541), ART-558 (NSC835418), RP-6685 (NSC848927), peposertib (NSC802822), ceralasertib (NSC780249), elimusertib (NSC800525), camonsertib (NSC841442), AZD-1390 (NSC803789), olaparib (NSC753686), talazoparib (NSC767125), rucaparib (NSC756644), sotorasib (NSC818433), MRTX-1133 (NSC836407), SN-38 (NSC673596), topotecan (NSC609699), epotoside (NSC141540), doxorubicin (NSC123127), gemcitabine (NSC613327), 5-fluorouracil (NSC19893), paclitaxel (NSC125973), vemurafenib (NSC761431), MSA-2 (NSC828583), SN-011 (NSC837082), adavosertib (NSC754352), prexasertib (NSC758257), carboplatin (NSC241240) and oxaliplatin (NSC266046), were obtained from the National Cancer Institute (NCI) Developmental Therapeutics Program Chemical Repository (21). The FDA-approved anticancer drug set is available from the Developmental Therapeutics Program at https://dtp.cancer.gov/organization/dscb/obtaining/. […] The stock solutions were prepared in dimethyl sulfoxide (DMSO, Sigma-Aldrich, St. Louis, MO, cat. D2650), except for the platinum compounds which were prepared in saline (Quality Biological, Gaithersburg, MD, cat. 114-055-101), at 800-fold the tested concentration and stored at -70 degrees C prior to their use. All drugs and investigational agents were tested over a range starting from a high concentration at or near the clinical Cmax and decreasing in half-log increments. If the clinical Cmax for an agent had not been determined, the highest concentration tested was 10 microM, except for SN-38, which was tested at a high concentration of 1 microM.
Cell Culture. All cells were maintained in an incubator at 37 degrees C and 5% CO2 with 95% humidity. The PDC lines were cultured according to standard operating procedures established by the NCI PDMR (https://pdmr.cancer.gov). Table 3 of the manuscript, lists the cell lines along with the number of the three cell types plated to form the mct-spheroids and media for tumor cell growth. After thawing, all PDC lines, except 997537-175-T-J1-PDC and 415267-285-R-J2-PDC, were cultured in Matrigel-coated flasks prepared with a working solution of 1X Ham's F-12 nutrient mix, without supplementation (Thermo Fisher Scientific, cat. 11765054), 100 U/mL penicillin-streptomycin (Thermo Fisher Scientific, cat. 15140122), and 2.5% Matrigel (Corning Inc., Corning, NY, cat. 354248) for the first three passages. The two PDC lines 997537-175-T-J1-PDC and 415267-285-R-J2-PDC were cultured on uncoated flasks. The 857933-349-R-J2-PDC line was cultured in 6C/Colon 1B media containing advanced DMEM/F-12 (Thermo Fisher Scientific, cat. 12634028), 10 mM HEPES (Thermo Fisher Scientific, cat. 15630080), 1X GlutaMAX supplement (Thermo Fisher Scientific, cat. 35050061), 0.1 mg/mL primocin (InvivoGen, San Diego, CA, cat. ant-pm-2), 10% defined fetal bovine serum, heat inactivated (HyClone Laboratories Inc., Logan, UT, cat. SH30070.03HI), 50% L-WRN conditioned media (ATCC, cat. CRL-3276), 1.25 mM N-Acetyl-L-cysteine (Sigma-Aldrich, cat. A9165), 10 mM nicotinamide (Sigma-Aldrich, cat. N0636), 1X B-27 supplement (Thermo Fisher Scientific, cat. 17504044), 1X N-2 supplement (Thermo Fisher Scientific, cat. […]

[1] = second compound 0.0316 µM, first compound 0.0316 µM
[2] = second compound 0.0316 µM, first compound 0.1 µM
[3] = second compound 0.0316 µM, first compound 0.316 µM
[4] = second compound 0.0316 µM, first compound 1 µM
[5] = second compound 0.1 µM, first compound 0.0316 µM
[6] = second compound 0.1 µM, first compound 0.1 µM
[7] = second compound 0.1 µM, first compound 0.316 µM
[8] = second compound 0.1 µM, first compound 1 µM
[9] = second compound 0.316 µM, first compound 0.0316 µM
[10] = second compound 0.316 µM, first compound 0.1 µM
[11] = second compound 0.316 µM, first compound 0.316 µM
[12] = second compound 0.316 µM, first compound 1 µM
[13] = second compound 1 µM, first compound 0.0316 µM
[14] = second compound 1 µM, first compound 0.1 µM
[15] = second compound 1 µM, first compound 0.316 µM
[16] = second compound 1 µM, first compound 1 µM
[17] = second compound 3.16 µM, first compound 0.0316 µM
[18] = second compound 3.16 µM, first compound 0.1 µM
[19] = second compound 3.16 µM, first compound 0.316 µM
[20] = second compound 3.16 µM, first compound 1 µM
[21] = second compound 10 µM, first compound 0.0316 µM
[22] = second compound 10 µM, first compound 0.1 µM
[23] = second compound 10 µM, first compound 0.316 µM
[24] = second compound 10 µM, first compound 1 µM
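Also: spheroids exposed to compounds for 7 days.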

`COc1ccc([C@@H](O)c2cc(-c3ncnc4cc(N5CCOCC5)ccc34)c(F)cc2Cl)nn1` + COC1C(OC(N)=O)C(O)C(Oc2ccc3c(O)c(NC(=O)c4ccc(O)c(CC=C(C)C)c4)c(=O)oc3c2C)OC1(C)C gave an IC50 (second compound 0.0316 µM) of 3.45 µM, an IC50 (second compound 0.1 µM) of 4.09 µM and an IC50 (second compound 0.316 µM) of 4.05 µM. The IC50 (second compound 1 µM) was 4.77 µM, the IC50 (second compound 3.16 µM) was 3.15 µM and the IC50 (second compound 10 µM) was 3.75 µM. For the same compound, the viability, T/C [1] was 95.4%, the viability, T/C [2] was 85.4% and the viability, T/C [3] was 76.3%. For the same compound, the viability, T/C [4] was 65.5%, the viability, T/C (second compound 0.0316 µM, first compound 3.16 µM) was 53.4% and the viability, T/C (second compound 0.0316 µM, first compound 10 µM) was 33.4%. The viability, T/C [5] was 104%, the viability, T/C [6] was 104% and the viability, T/C [7] was 81.9%. It also gave a viability, T/C [8] of 71.2%, a viability, T/C (second compound 0.1 µM, first compound 3.16 µM) of 56.7% and a viability, T/C (second compound 0.1 µM, first compound 10 µM) of 33.8%. For the same compound, the viability, T/C [9] was 100%, the viability, T/C [10] was 93.3% and the viability, T/C [11] was 86.6%. For the same compound, the viability, T/C [12] was 73.7%, the viability, T/C (second compound 0.316 µM, first compound 3.16 µM) was 54.2% and the viability, T/C (second compound 0.316 µM, first compound 10 µM) was 32.8%. It also gave a viability, T/C [13] of 94.2%, a viability, T/C [14] of 81.4% and a viability, T/C [15] of 90%. The viability, T/C [16] was 66.8%, the viability, T/C (second compound 1 µM, first compound 3.16 µM) was 61.9% and the viability, T/C (second compound 1 µM, first compound 10 µM) was 34.3%. It also gave a viability, T/C [17] of 89.9%, a viability, T/C [18] of 81.3% and a viability, T/C [19] of 97.2%. The viability, T/C [20] was 68.4%, the viability, T/C (second compound 3.16 µM, first compound 3.16 µM) was 52.5% and the viability, T/C (second compound 3.16 µM, first compound 10 µM) was 31.8%. The viability, T/C [21] was 108%, the viability, T/C [22] was 86.9% and the viability, T/C [23] was 87.5%. It also gave a viability, T/C [24] of 69.1%, a viability, T/C (second compound 10 µM, first compound 3.16 µM) of 55.5% and a viability, T/C (second compound 10 µM, first compound 10 µM) of 31.5%.
In the case of `C=CCn1c(=O)c2cnc(Nc3ccc(N4CCN(C)CC4)cc3)nc2n1-c1cccc(C(C)(C)O)n1` + Cc1cccc(N(C)C(=O)C2C(O)CCN2c2nc(C)cc(C(F)(F)F)c2C#N)c1, the IC50 (second compound 0.0316 µM) is reported as over 1 µM, the IC50 (second compound 0.1 µM) is reported as 0.771 µM and the IC50 (second compound 0.316 µM) is reported as 0.435 µM. It also gave an IC50 (second compound 1 µM) of 0.856 µM, an IC50 (second compound 3.16 µM) of over 1 µM and an IC50 (second compound 10 µM) of 0.817 µM. It also gave a viability, T/C (second compound 0.0316 µM, first compound 0.00316 µM) of 101%, a viability, T/C (second compound 0.0316 µM, first compound 0.01 µM) of 95.6% and a viability, T/C [1] of 84.9%. It also gave a viability, T/C [2] of 72.6%, a viability, T/C [3] of 56.5% and a viability, T/C [4] of 51.1%. It also gave a viability, T/C (second compound 0.1 µM, first compound 0.00316 µM) of 105%, a viability, T/C (second compound 0.1 µM, first compound 0.01 µM) of 98% and a viability, T/C [5] of 93%. It also gave a viability, T/C [6] of 77.2%, a viability, T/C [7] of 59.9% and a viability, T/C [8] of 47.2%. For the same compound, the viability, T/C (second compound 0.316 µM, first compound 0.00316 µM) was 98.6%, the viability, T/C (second compound 0.316 µM, first compound 0.01 µM) was 97.9% and the viability, T/C [9] was 93.7%. It also gave a viability, T/C [10] of 73%, a viability, T/C [11] of 53.3% and a viability, T/C [12] of 43.6%. It also gave a viability, T/C (second compound 1 µM, first compound 0.00316 µM) of 101%, a viability, T/C (second compound 1 µM, first compound 0.01 µM) of 93.8% and a viability, T/C [13] of 88.9%. For the same compound, the viability, T/C [14] was 70.1%, the viability, T/C [15] was 55% and the viability, T/C [16] was 49.4%. The viability, T/C (second compound 3.16 µM, first compound 0.00316 µM) was 92.2%, the viability, T/C (second compound 3.16 µM, first compound 0.01 µM) was 96.5% and the viability, T/C [17] was 94.2%. It also gave a viability, T/C [18] of 77.7%, a viability, T/C [19] of 61.6% and a viability, T/C [20] of 50%. It also gave a viability, T/C (second compound 10 µM, first compound 0.00316 µM) of 103%, a viability, T/C (second compound 10 µM, first compound 0.01 µM) of 84.8% and a viability, T/C [21] of 98.2%. For the same compound, the viability, T/C [22] was 82.7%, the viability, T/C [23] was 61.6% and the viability, T/C [24] was 47.5%.
